Experimental data as given in US20240398807A1, “COMPOSITIONS AND METHODS OF TREATING KIDNEY DISEASE AND FIBROSIS” (Mitokinin, Inc., priority 2020, published 2024).
“Also recorded” adds a separate entry of the source.

How the values were obtained:
[1] = system: HeLa cells expressing a mitophagy indicator (mtKeima) protein; assay: mitophagy in HeLa cells expressing mtKeima, FACS; type: cell-based; settings: 1 mM of FCCP and Oligomycin then specified dose of compound, FIG. 1
Description: Briefly, HeLa cells expressing a mitophagy indicator (mtKeima) protein were treated with […] of FCCP and Oligomycin followed by the specified dose of compound, then analyzed by FACS to quantify the percentage of cells undergoing mitophagy.

[2] = system: HeLa cells expressing a YFP-tagged Parkin; assay: Parkin recruitment to mitochondria, longitudinal imaging; type: cell-based; settings: 1 mM of FCCP and Oligomycin then specified dose, percentage of cells with Parkin recruited at 60 minutes, FIG. 2
Description: HeLa cells expressing a YFP-tagged Parkin were treated with […] of FCCP and Oligomycin followed by the specified dose of compound, then analyzed by longitudinal imaging. Percentage of cells with Parkin recruited to mitochondria at 60 minutes is shown.

[3] = system: KIM-1 (kidney-injury marker 1); assay: urine KIM-1 ELISA in cisplatin-challenged mice; type: in vivo, mice (C57Bl/6); settings: for KIM-1 (urine biomarker for kidney injury): single i.p. 10 mg/kg cisplatin, day 3 post-challenge
Description: Urine was collected from scruffed mice (serial collection) or directly from bladder using insulin syringe during harvest (terminal collection). KIM-1 was measured in mouse urine using R&D System's Mouse TIM-1/KIM-1/HAVCR DuoSet ELISA following manufacturer's published protocol.
Referring to FIG. 10, mice (C57Bl/6) were challenged with a single intraperitoneal dose of 10 mg/kg cisplatin or saline (not shown) and dosed by oral gavage once per day (QD) with 35985.

[4] = system: mitochondrial DNA; assay: kidney mtDNA/nucDNA ratio by qPCR; type: in vivo
Description: A small piece of frozen kidney tissue (˜12 mg) was homogenized and DNA extracted using the Qiagen QIAamp DNA mini kit. mtDNA/nucDNA ratio was determined using a qPCR protocol from the Aurwex lab (Quiros et al, 2017), using the following primers: 16S rRNA 5′-[…]-3′(SEQ ID NO:11) and 5′-[…]-3′ (SEQ ID NO:12); ND1 5′-[…]-3′ (SEQ ID NO: 13) and: 5′-[…]-3 (SEQ ID NO:14); HK2 5′-[…]-3′ (SEQ ID NO:15) and 5′-[…]-3′ (SEQ ID NO:16).
Referring to FIG. 4, mice (C57Bl/6) were challenged with a single intraperitoneal dose of 10 mg/kg cisplatin. Tissue lysates were examined for mitochondrial gene ND1 and nuclear gene beta actin by quantitative PCR.
Referring to FIG. 12, mice (C57Bl/6) were challenged with a single intraperitoneal dose of 10 mg/kg cisplatin and dosed by oral gavage, once per day (QD) for seven days with 35985.

[5] = system: pS65-Ub; assay: pS65-Ub ELISA of kidney mitochondrial preparations; type: in vivo, mice (C57Bl/6); settings: single i.p. 30 mg/kg cisplatin
Description: Kidneys were removed from -80° C. and minced on an ice block. Minced tissues were transferred to a dounce homogenizer and homogenized with 20× strokes of the 'loose' pestle and 20× strokes of the 'tight' pestle using 1 ml ul of cold mitochondrial isolation buffer (MIB, 50 mM Tris-HCl (pH 7.5), 70 mM sucrose, 210 mM sorbitol, 1 mM EDTA, 1 mM EGTA, 100 mM chloroacetamide, HaltTM Protease and Phosphatase Inhibitor Cocktail, EDTA-free (100×) (PI), 10 μM PR619). Kidney homogenate was transferred to a 1.5 ml Eppendorf tube and were centrifuged at 300×g for 5 min at 4° C. Approximately 800 ul of supernatant was transferred to a new 1.5 ml microcentrifuge tube. The supernatant (cytosol+mitochondria) was transferred to a new tube and centrifuged at 10,000 g for 20 min at 4° C. to pellet the mitochondrial fraction. After removing residual supernatant, mitochondria were resuspended in lysis buffer (100 mM Bicine pH 8.0, 0.27M Sucrose, 1 mM EDTA, 1 mM EGTA, 5 mM Na4P2O7, 100 mM Tris pH 7.5, 1% Triton X-100), containing benzonase (1:1000), HALT protease/phosphatase inhibitors (1:100), and PR-619 de-ubiquitinase inhibitor (1:1000). […] For peroxidase reaction, 50 ul of TMB reagent (Pierce #34029) was added to the wells after washing and wells were monitored closely for reaction development. […] Absorbance was measured at 450 nm using […] SpectraMax). […]

[6] = system: PINK1; assay: Western blot for PINK1 in kidney mitochondrial preparations; type: in vivo, mice (C57Bl/6); settings: C57Bl/6; single i.p. 30 mg/kg cisplatin; FIG. 3B
Description: Kidneys were removed from -80° C. and minced on an ice block. Minced tissues were transferred to a dounce homogenizer and homogenized with 20× strokes of the 'loose' pestle and 20× strokes of the 'tight' pestle using 1 ml ul of cold mitochondrial isolation buffer (MIB, 50 mM Tris-HCl (pH 7.5), 70 mM sucrose, 210 mM sorbitol, 1 mM EDTA, 1 mM EGTA, 100 mM chloroacetamide, HaltTM Protease and Phosphatase Inhibitor Cocktail, EDTA-free (100×) (PI), 10 μM PR619). Kidney homogenate was transferred to a 1.5 ml Eppendorf tube and were centrifuged at 300×g for 5 min at 4° C. Approximately 800 ul of supernatant was transferred to a new 1.5 ml microcentrifuge tube. The supernatant (cytosol+mitochondria) was transferred to a new tube and centrifuged at 10,000 g for 20 min at 4° C. to pellet the mitochondrial fraction. […] The total protein concentration of kidney mitopreps was measured with the Thermo Scientific Pierce BCA Protein Assay Kit (Thermo Scientific), according to its product manual. […] For each lane of a 26 well gel (4-20% CriterionTM Tris-HCl Protein Gel, Bio-Rad Laboratories), 10 μg per sample was loaded and analyzed by Western Blotting. Indicated bands were quantified using ImageStudio Lite and normalized to beta actin band intensity. […]

[7] = body weight loss in cisplatin-challenged mice; type: in vivo, mice (C57Bl/6)
Description: Referring to FIG. 9, mice (C57Bl/6) were challenged with a single intraperitoneal dose of 10 mg/kg cisplatin or saline (not shown) and dosed by oral gavage once per day (QD) with 35985.

[8] = system: GDF15; assay: serum GDF15 ELISA in cisplatin-challenged mice; type: in vivo, mice (C57Bl/6); settings: single i.p. 10 mg/kg cisplatin; oral gavage QD 20 mg/kg or 50 mg/kg; after 7 days; FIG. 13
Description: For tissue harvest, mice were anesthetized using isofluorane. Cardiac puncture was performed to withdraw blood for serum collection. Blood was deposited into serum separator tubes and left undisturbed for 30 min to 1 hr at room temperature to allow clotting prior to serum separation by centrifugation for 2 min (10,000 g, room temperature). Collected serum was transferred to Eppendorf tubes and frozen on dry ice. After cervical dislocation, left and right kidneys were extracted and frozen until analysis.
Referring to FIG. 13, mice (C57Bl/6) were challenged with a single intraperitoneal dose of 10 mg/kg cisplatin or saline and dosed by oral gavage once per day (QD) with 20 mg/kg or 50 mg/kg 35985.

## c1ccc2c(c1)OC[C@@H](N1CCOCC1)[C@@H]2Nc1ncnc2[nH]c(C3CC3)cc12 [compound 40180]
[1]
  percentage of cells undergoing mitophagy: induce mitophagy in a dose dependent manner; also recorded: dose responsive increase in the percentage of cells undergoing mitophagy
[2]
  rate of Parkin recruitment to mitochondria: accelerate recruitment of Parkin to mitochondria; also recorded: dose responsive increase in the rate of Parkin recruitment to mitochondria
[3]; 40180 oral gavage QD, FIG. 14
  KIM-1 (urine biomarker for kidney injury): reduces KIM-1; also recorded: dose-dependent rescue of KIM-1

## N.N.[Cl][Pt][Cl] [cisplatin, reference compound]
[4]; C57Bl/6, single i.p. 10 mg/kg cisplatin, FIG. 4
  mitochondrial DNA (mtDNA/nucDNA ratio; ND1 vs beta actin): induces reduction in mtDNA/nucDNA ratio; also recorded: significant reduction in mitochondrial DNA
[5]; C57Bl/6, FIG. 3A
  pS65-Ub in kidney mitochondria: pS65-Ub increase
[5]; PINK1 KO mice, different times, FIG. 6, 30 mg/kg
  kidney mitochondria pS65-Ub levels: does not induce a change in pS65 Ubiquitin; also recorded: remains unchanged
[6]
  PINK1 protein in kidney mitochondria: induction of PINK1

## C[C@@H]1CN([C@@H]2COc3cc(F)ccc3[C@H]2Nc2ncnc3[nH]c(C(F)(F)F)cc23)CCO1 [compound 41088]
[7]; single dose cisplatin 10 mg/kg i.p., p.o., q.d. at 1.56, 3.13, 6.25 and 12.5 mg/kg, FIG. 18
  cisplatin-induced weight loss: reduces weight loss; also recorded: Weight loss was ameliorated

## FC(F)(F)c1cc2c(N[C@H]3c4ccccc4CC[C@@H]3C3C[C@@H]4COC[C@H]4C3)ncnc2[nH]1 [compound 40270]
[3]; single dose cisplatin 10 mg/kg i.p., 53 mg/kg p.o., b.i.d., FIG. 17
  kidney dysfunction, KIM-1 levels: reduces KIM-1; also recorded: Dysfunction was ameliorated

## FC(F)(F)c1cc2c(N[C@@H]3CCCc4ccccc43)ncnc2[nH]1 [compound 35985]
[1]
  percentage of cells undergoing mitophagy: induce mitophagy in a dose dependent manner; also recorded: dose responsive increase in the percentage of cells undergoing mitophagy
[2]
  rate of Parkin recruitment to mitochondria: accelerate recruitment of Parkin to mitochondria; also recorded: dose responsive increase in the rate of Parkin recruitment to mitochondria
[7]; single i.p. 10 mg/kg cisplatin, 35985 oral gavage QD, FIG. 9, 10 mg/kg
  cisplatin-mediated weight-loss: ameliorates cisplatin-induced body-weight loss; also recorded: dose-dependent rescue of cisplatin-mediated weight-loss
[3]; 35985 oral gavage QD, FIG. 10
  KIM-1 (urine biomarker for kidney injury): reduces kidney damage in cisplatin challenged mice; also recorded: dose-dependent rescue of KIM-1
[4]; single i.p. 10 mg/kg cisplatin, oral gavage QD seven days, at 10 mg/kg and above, FIG. 12
  cisplatin-mediated mitochondrial DNA loss: ameliorates mtDNA loss upon cisplatin challenge; also recorded: rescued cisplatin-mediated mitochondrial DNA loss
[8]
  mitochondrial-stress serum biomarker GDF15 (ELISA): reduces serum GDF15 levels; also recorded: reduced mitochondrial-stress serum biomarker GDF15
